From ChEMBL document CHEMBL2046287, “Conformation study of 2-arylbenzimidazoles as inhibitors of Chlamydia pneumoniae growth” (2012)

Tested on: Chlamydia pneumoniae
Assay: Growth inhibition of Chlamydia pneumoniae at 10 uM
Assay type: functional
Conditions: read-out: GI

Going from O=C(Nc1ccccc1)c1ccco1 to O=C(Nc1ccccc1)c1ccoc1, the inhibition of growth at 10 µM rises from 45% to 78%.

Compared with O=C(Nc1ccccc1)c1ccccc1C(F)(F)F, O=C(Nc1ccccc1)c1ccccc1F is lower in inhibition of growth at 10 µM: 96% for the first, 0% for the second.

Going from c1ccc(-c2nc3ccccc3o2)cc1 [2-PHENYLBENZO[D]OXAZOLE] to c1ccc(-c2nc3ccccc3[nH]2)cc1, the inhibition of growth at 10 µM rises from 61% to 89%.

Going from O=C(Nc1ccccc1)c1ccsc1 to O=C(Nc1ccccc1)c1cccs1, the inhibition of growth at 10 µM rises from 68% to 89%.

Going from O=C(Nc1ccccc1)c1cscn1 to O=C(Nc1ccccc1)c1ccccn1, the inhibition of growth at 10 µM falls from 39% to 36%.

Compared with COc1ccccc1C(=O)Nc1ccccc1, Cc1ccccc1C(=O)Nc1ccccc1 is higher in inhibition of growth at 10 µM: 0% for the first, 99% for the second.

First: Cn1cccc1C(=O)Nc1ccccc1
Second: O=C(Nc1ccccc1)c1ccccc1 [N-PHENYLBENZAMIDE]
The inhibition of growth at 10 µM of the first is lower: 80% for the first, 99% for the second.

First: Cc1ccccc1-c1nc2ccccc2[nH]1
Second: Cn1c(-c2ccccc2)nc2ccccc21
The inhibition of growth at 10 µM of the first is higher: 59% for the first, 0% for the second.
